Laboratory results: PubChem BioAssay AID248 (DTP/NCI, 2004)
“And” between values parts separate entries of the source, which are not always exact repeats. Equal entries are not always repeated. Inconclusive results and toxic doses are left out. No stated cut-off is given here; in the data, active means T/C of 150% or more; inactive means T/C below 125%.

System: L1210 leukemia ip in BDF1 mice, survival T/C
Assay: NCI In Vivo Anticancer Drug Screen. Data for tumor model L1210 Leukemia (intraperitoneal) in B6D2F1 (BDF1) mice
Conditions: endpoint: mean survival time, higher = longer survival
Outline: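 Tumor was transplanted into mice, which were then dosed with test compound or vehicle alone. Survival was recorded for each group, and the treated figure was expressed relative to the control figure.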

[1] = dose: 50.0 mg/kg/injection, schedule: Q04DX003 (ip), vehicle: saline
[2] = dose: 100.0 mg/kg/injection, schedule: Q01DX001 (ip), vehicle: other
[3] = dose: 100.0 mg/kg/injection, schedule: Q01DX009 (ip), vehicle: saline
[4] = dose: 100.0 mg/kg/injection, schedule: Q04DX003 (ip), vehicle: Klucel (hydroxypropylcellulose) (HPC)
[5] = dose: 100.0 mg/kg/injection, schedule: Q04DX003 (ip), vehicle: saline
[6] = dose: 200.0 mg/kg/injection, schedule: Q01DX001 (ip), vehicle: other
[7] = dose: 200.0 mg/kg/injection, schedule: Q01DX009 (ip), vehicle: saline
[8] = dose: 200.0 mg/kg/injection, schedule: Q04DX003 (ip), vehicle: Klucel (hydroxypropylcellulose) (HPC)
[9] = dose: 200.0 mg/kg/injection, schedule: Q04DX003 (ip), vehicle: saline
[10] = dose: 400.0 mg/kg/injection, schedule: Q01DX001 (ip), vehicle: other
[11] = dose: 400.0 mg/kg/injection, schedule: Q04DX003 (ip), vehicle: Klucel (hydroxypropylcellulose) (HPC)
[12] = dose: 400.0 mg/kg/injection, schedule: Q04DX003 (ip), vehicle: saline
[13] = dose: 100.0 mg/kg/injection, schedule: Q04DX002 (ip), vehicle: Klucel (hydroxypropylcellulose) (HPC)
[14] = dose: 200.0 mg/kg/injection, schedule: Q04DX002 (ip), vehicle: Klucel (hydroxypropylcellulose) (HPC)
[15] = dose: 400.0 mg/kg/injection, schedule: Q04DX002 (ip), vehicle: Klucel (hydroxypropylcellulose) (HPC)
[16] = dose: 50.0 mg/kg/injection, schedule: Q01DX001 (ip), vehicle: saline
[17] = dose: 100.0 mg/kg/injection, schedule: Q01DX001 (ip), vehicle: saline
[18] = dose: 200.0 mg/kg/injection, schedule: Q01DX001 (ip), vehicle: saline
[19] = dose: 400.0 mg/kg/injection, schedule: Q01DX001 (ip), vehicle: saline
[20] = dose: 50.0 mg/kg/injection, schedule: Q01DX009 (ip), vehicle: Klucel (hydroxypropylcellulose) (HPC)
[21] = dose: 100.0 mg/kg/injection, schedule: Q01DX009 (ip), vehicle: Klucel (hydroxypropylcellulose) (HPC)
[22] = dose: 100.0 mg/kg/injection, schedule: Q01DX001 (ip), vehicle: Klucel (hydroxypropylcellulose) (HPC)
[23] = dose: 200.0 mg/kg/injection, schedule: Q01DX001 (ip), vehicle: Klucel (hydroxypropylcellulose) (HPC)
[24] = dose: 200.0 mg/kg/injection, schedule: Q01DX009 (ip), vehicle: Klucel (hydroxypropylcellulose) (HPC)
[25] = dose: 400.0 mg/kg/injection, schedule: Q01DX001 (ip), vehicle: Klucel (hydroxypropylcellulose) (HPC)
[26] = dose: 50.0 mg/kg/injection, schedule: Q01DX009 (ip), vehicle: saline with Tween-80
[27] = dose: 100.0 mg/kg/injection, schedule: Q01DX009 (ip), vehicle: saline with Tween-80
[28] = dose: 100.0 mg/kg/injection, schedule: Q04DX003 (ip), vehicle: saline with Tween-80
[29] = dose: 200.0 mg/kg/injection, schedule: Q01DX009 (ip), vehicle: saline with Tween-80
[30] = dose: 200.0 mg/kg/injection, schedule: Q04DX003 (ip), vehicle: saline with Tween-80
[31] = dose: 400.0 mg/kg/injection, schedule: Q01DX009 (ip), vehicle: saline with Tween-80
[32] = dose: 400.0 mg/kg/injection, schedule: Q04DX003 (ip), vehicle: saline with Tween-80

Measured: T/C

CCCCCCCCCC(=O)NO
inactive: dose: 25.0 mg/kg/injection, schedule: Q04DX003 (ip), vehicle: saline 102 % of control | [1] 98 % of control | [2] 97 % of control | [3] 87 % of control | [4] 93 % of control | [5] 86 % of control and 92 % of control | [6] 97 % of control | [7] 98 % of control | [8] 93 % of control | [9] 88 % of control | [10] 95 % of control | [11] 91 % of control | [12] 86 % of control

c1ccc2[nH]c(SCCSc3nc4ccccc4[nH]3)nc2c1
inactive: [13] 111 % of control | [14] 107 % of control | [15] 92 % of control

CC1(C)NC(=O)N(CCO)C1=O
inactive: [1] 111 % of control | [5] 111 % of control | [9] 100 % of control | [12] 101 % of control

O=C1NC(=O)N2CCSC2(Cc2ccccc2)N1 (stereo not given)
inactive: [16] 108 % of control | [17] 96 % of control | [18] 96 % of control | [19] 100 % of control

CCCCCCCCCCCCCCCCCCC[As](=O)(O)CCCCCCCCCCCCCCCCCCC
inactive: [16] 97 % of control | [17] 89 % of control | [18] 95 % of control | [19] 91 % of control

O=C(OOC(=O)c1ccccc1)c1ccccc1
inactive: dose: 50.0 mg/kg/injection, schedule: Q01DX001 (ip), vehicle: other 96 % of control | [2] 94 % of control | [6] 102 % of control | [10] 102 % of control

O=[N+]([O-])c1csc2ccccc12
inactive: dose: 12.5 mg/kg/injection, schedule: Q01DX009 (ip), vehicle: Klucel (hydroxypropylcellulose) (HPC) 97 % of control | dose: 25.0 mg/kg/injection, schedule: Q01DX009 (ip), vehicle: Klucel (hydroxypropylcellulose) (HPC) 90 % of control | [20] 90 % of control | [21] 105 % of control

Cc1ccc(C)c(OC(=O)Nc2cccc(C(F)(F)F)c2)c1
inactive: [22] 104 % of control | [21] 93 % of control and 110 % of control | [13] 105 % of control | [4] 92 % of control | [23] 98 % of control | [24] 96 % of control and 109 % of control | [14] 99 % of control and 115 % of control | [8] 97 % of control | [25] 100 % of control | dose: 400.0 mg/kg/injection, schedule: Q01DX009 (ip), vehicle: Klucel (hydroxypropylcellulose) (HPC) 101 % of control and 86 % of control | [15] 101 % of control and 105 % of control | [11] 103 % of control

Cc1nnc(NC(=O)NCCCl)s1
inactive: [4] 100 % of control | [8] 107 % of control | [11] 118 % of control

O=C1c2c(cccc2NCCO)Cc2cccc(NCCO)c21
inactive: [22] 102 % of control | [4] 98 % of control | [23] 104 % of control | [8] 93 % of control | [25] 96 % of control | [11] 96 % of control

O=C(Nc1ccc2c(c1)OCO2)O/N=C\c1ccccn1
inactive: [26] 103 % of control | [27] 86 % of control and 92 % of control | [28] 100 % of control | [29] 86 % of control and 92 % of control | [30] 101 % of control | [31] 91 % of control | [32] 95 % of control

CC1=NCCO1
inactive: [5] 102 % of control | [9] 105 % of control | [12] 105 % of control

Cc1nc(SCc2ccc(Cl)cc2)nc(N2CC2)c1Br
inactive: dose: 59.0 mg/kg/injection, schedule: Q01DX Z (ip), vehicle: methylcellulose (MC) 94 % of control | dose: 88.0 mg/kg/injection, schedule: Q01DX Z (ip), vehicle: methylcellulose (MC) 86 % of control | dose: 200.0 mg/kg/injection, schedule: Q01DX Z (ip), vehicle: methylcellulose (MC) 95 % of control

O=C1OC(=O)C2C1C1c3ccccc3C13c1ccccc1C23 (stereo not given)
inactive: [17] 92 % of control | [3] 110 % of control | [18] 94 % of control | [7] 100 % of control | [19] 97 % of control | dose: 400.0 mg/kg/injection, schedule: Q01DX009 (ip), vehicle: saline 89 % of control

CCCC(=O)Oc1ccc2c(C)cc(=O)oc2c1
inactive: [27] 102 % of control | [28] 94 % of control | [29] 104 % of control | [30] 100 % of control | [31] 106 % of control | [32] 100 % of control

CCC[CH2][Sn]1([CH2]CCC)[O]OC(C)(CC)[O]1 (stereo not given)
inactive: dose: 6.25 mg/kg/injection, schedule: Q01DX009 (ip), vehicle: saline sonified 108 % of control

F[Si]1(c2cccc(Br)c2)c2ccccc2-c2ccccc21
inactive: dose: 100.0 mg/kg/injection, schedule: Q01DX001 (ip), vehicle: saline with Tween-80 103 % of control | [27] 103 % of control | dose: 200.0 mg/kg/injection, schedule: Q01DX001 (ip), vehicle: saline with Tween-80 100 % of control | [29] 101 % of control | dose: 400.0 mg/kg/injection, schedule: Q01DX001 (ip), vehicle: saline with Tween-80 100 % of control | [31] 104 % of control

Cc1cc(Cl)ccc1OC(=O)Nc1cccc2ccccc12
inactive: dose: 50.0 mg/kg/injection, schedule: Q01DX009 (ip), vehicle: carboxymethylcellulose (CMC) 97 % of control and 101 % of control | dose: 50.0 mg/kg/injection, schedule: Q04DX003 (ip), vehicle: carboxymethylcellulose (CMC) 103 % of control | dose: 100.0 mg/kg/injection, schedule: Q01DX009 (ip), vehicle: carboxymethylcellulose (CMC) 102 % of control and 104 % of control | [13] 101 % of control | dose: 100.0 mg/kg/injection, schedule: Q04DX002 (ip), vehicle: carboxymethylcellulose (CMC) 98 % of control and 91 % of control | dose: 100.0 mg/kg/injection, schedule: Q04DX003 (ip), vehicle: carboxymethylcellulose (CMC) 100 % of control | dose: 200.0 mg/kg/injection, schedule: Q01DX009 (ip), vehicle: carboxymethylcellulose (CMC) 94 % of control and 92 % of control | [14] 112 % of control | dose: 200.0 mg/kg/injection, schedule: Q04DX002 (ip), vehicle: carboxymethylcellulose (CMC) 98 % of control and 100 % of control | dose: 200.0 mg/kg/injection, schedule: Q04DX003 (ip), vehicle: carboxymethylcellulose (CMC) 95 % of control | [15] 104 % of control | dose: 400.0 mg/kg/injection, schedule: Q04DX002 (ip), vehicle: carboxymethylcellulose (CMC) 104 % of control

CCN(CC)CCCNc1ccnc2cc(Cl)ccc12
inactive: [17] 94 % of control

CN(C)CCCNC(=S)C(=S)NCCCN(C)C
inactive: [20] 105 % of control | [21] 105 % of control | [4] 94 % of control | [24] 96 % of control | [8] 94 % of control

CC(=O)OC1CCCc2c(O)c3c(c(O)c21)C(=O)c1ccccc1C3=O (stereo not given)
inactive: [17] 93 % of control | [18] 93 % of control | [19] 91 % of control

CC(=O)NNC(=O)Nc1cccc(C(F)(F)F)c1
inactive: [26] 94 % of control | [27] 91 % of control

CC(C)C[As](=O)(O)O
inactive: [4] 106 % of control | [8] 95 % of control

Clc1ccc(-c2oc(-c3ccc(Cl)cc3)c3c2CC=CC3)cc1
inactive: dose: 100.0 mg/kg/injection, schedule: Q04DX003 (ip), vehicle: gum acacia 93 % of control | dose: 200.0 mg/kg/injection, schedule: Q04DX003 (ip), vehicle: gum acacia 106 % of control | dose: 400.0 mg/kg/injection, schedule: Q04DX003 (ip), vehicle: gum acacia 97 % of control

CCCNC(=O)CS(=O)(=O)c1ccc(N)cc1
inactive: [28] 97 % of control | [30] 95 % of control | [32] 97 % of control
